Laboratory results: article PMC9300271, “Identifying Active Compounds and Mechanisms of Citrus changshan-Huyou Y. B. Chang against URTIs-Associated Inflammation by Network Pharmacology in Combination with Molecular Docking” (Evidence-based Complementary and Alternative Medicine : eCAM, 2022)

What was measured:
[1] = retrieved from database; ref TCMSP database [18]; cited from earlier work
[2] = target: PI3Kα (p110α/p85α) (Homo sapiens, UniProt P42336); assay: ADP-Glo Kinase Assay, inhibition of PI3Kα
[3] = target: PI3Kβ (p110β/p85α) (Homo sapiens, UniProt P42338); assay: ADP-Glo Kinase Assay, inhibition of PI3Kβ
[4] = target: PI3Kγ (p120γ) (Homo sapiens, UniProt P48736); assay: ADP-Glo Kinase Assay, inhibition of PI3Kγ
[5] = target: PI3Kδ (p110δ/p85α) (Homo sapiens, UniProt O00329); assay: ADP-Glo Kinase Assay, inhibition of PI3Kδ
[6] = set-up: method as in TCMSP database [18]; settings: retrieved from database; ref TCMSP database [18]; in h (unit assumed); cited from earlier work

Sequence of PI3Kγ (p120γ) (P48736 whole entry): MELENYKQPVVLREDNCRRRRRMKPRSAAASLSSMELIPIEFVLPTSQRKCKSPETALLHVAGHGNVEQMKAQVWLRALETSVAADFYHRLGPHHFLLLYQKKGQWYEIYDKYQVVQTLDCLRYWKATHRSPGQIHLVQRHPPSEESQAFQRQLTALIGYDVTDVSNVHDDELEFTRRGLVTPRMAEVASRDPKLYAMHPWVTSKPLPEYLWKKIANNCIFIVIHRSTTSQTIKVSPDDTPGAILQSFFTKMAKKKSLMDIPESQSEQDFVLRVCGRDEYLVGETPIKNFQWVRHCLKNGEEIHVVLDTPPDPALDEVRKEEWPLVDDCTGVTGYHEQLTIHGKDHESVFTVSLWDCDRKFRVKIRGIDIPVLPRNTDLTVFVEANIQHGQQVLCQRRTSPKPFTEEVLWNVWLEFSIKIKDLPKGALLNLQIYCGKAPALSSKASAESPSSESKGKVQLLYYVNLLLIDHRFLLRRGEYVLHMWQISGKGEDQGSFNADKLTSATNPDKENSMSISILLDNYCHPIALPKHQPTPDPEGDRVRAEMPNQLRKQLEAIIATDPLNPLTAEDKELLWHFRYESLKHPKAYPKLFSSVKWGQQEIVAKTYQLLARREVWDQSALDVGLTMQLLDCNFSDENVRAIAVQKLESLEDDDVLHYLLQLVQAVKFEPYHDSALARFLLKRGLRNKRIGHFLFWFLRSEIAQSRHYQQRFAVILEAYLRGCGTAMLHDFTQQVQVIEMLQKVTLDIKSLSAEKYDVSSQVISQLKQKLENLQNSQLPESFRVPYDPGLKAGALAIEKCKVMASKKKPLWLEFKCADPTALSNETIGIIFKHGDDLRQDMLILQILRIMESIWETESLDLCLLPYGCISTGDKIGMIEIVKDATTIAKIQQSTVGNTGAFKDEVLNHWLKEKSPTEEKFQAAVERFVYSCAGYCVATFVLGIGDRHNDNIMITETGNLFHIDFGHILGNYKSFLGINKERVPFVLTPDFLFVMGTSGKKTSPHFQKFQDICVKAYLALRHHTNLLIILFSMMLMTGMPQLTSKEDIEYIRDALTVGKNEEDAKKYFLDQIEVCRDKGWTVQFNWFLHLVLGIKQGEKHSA
Sequence of PI3Kδ (p110δ/p85α) (O00329 whole entry): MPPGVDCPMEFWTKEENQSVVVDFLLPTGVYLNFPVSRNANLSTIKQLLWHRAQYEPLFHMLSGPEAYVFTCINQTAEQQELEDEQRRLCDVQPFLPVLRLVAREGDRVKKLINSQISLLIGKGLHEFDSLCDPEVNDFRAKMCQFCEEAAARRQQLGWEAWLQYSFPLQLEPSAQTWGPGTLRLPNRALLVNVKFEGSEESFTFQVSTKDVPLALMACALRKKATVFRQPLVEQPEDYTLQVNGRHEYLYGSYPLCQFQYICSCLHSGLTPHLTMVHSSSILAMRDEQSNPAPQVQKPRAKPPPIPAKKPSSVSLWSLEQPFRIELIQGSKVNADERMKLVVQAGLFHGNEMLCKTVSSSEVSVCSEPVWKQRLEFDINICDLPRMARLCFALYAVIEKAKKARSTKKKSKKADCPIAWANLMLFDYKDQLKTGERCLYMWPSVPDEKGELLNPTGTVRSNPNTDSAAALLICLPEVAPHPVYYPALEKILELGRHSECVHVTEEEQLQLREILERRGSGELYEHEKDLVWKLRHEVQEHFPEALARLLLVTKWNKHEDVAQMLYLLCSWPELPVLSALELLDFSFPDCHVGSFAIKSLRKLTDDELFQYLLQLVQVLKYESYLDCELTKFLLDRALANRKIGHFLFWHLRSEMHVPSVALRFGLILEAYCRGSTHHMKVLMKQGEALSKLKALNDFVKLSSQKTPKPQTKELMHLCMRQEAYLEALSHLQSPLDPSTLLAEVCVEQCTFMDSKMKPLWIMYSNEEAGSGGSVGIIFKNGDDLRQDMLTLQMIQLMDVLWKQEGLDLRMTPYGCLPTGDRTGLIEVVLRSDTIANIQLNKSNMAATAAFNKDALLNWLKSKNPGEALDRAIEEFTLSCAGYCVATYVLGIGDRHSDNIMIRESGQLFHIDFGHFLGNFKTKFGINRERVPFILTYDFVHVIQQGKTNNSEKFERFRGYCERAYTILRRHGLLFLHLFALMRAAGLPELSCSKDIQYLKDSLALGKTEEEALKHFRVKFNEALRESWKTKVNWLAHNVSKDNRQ
Sequence of PI3Kδ (p110δ/p85α) (P27986 whole entry partner): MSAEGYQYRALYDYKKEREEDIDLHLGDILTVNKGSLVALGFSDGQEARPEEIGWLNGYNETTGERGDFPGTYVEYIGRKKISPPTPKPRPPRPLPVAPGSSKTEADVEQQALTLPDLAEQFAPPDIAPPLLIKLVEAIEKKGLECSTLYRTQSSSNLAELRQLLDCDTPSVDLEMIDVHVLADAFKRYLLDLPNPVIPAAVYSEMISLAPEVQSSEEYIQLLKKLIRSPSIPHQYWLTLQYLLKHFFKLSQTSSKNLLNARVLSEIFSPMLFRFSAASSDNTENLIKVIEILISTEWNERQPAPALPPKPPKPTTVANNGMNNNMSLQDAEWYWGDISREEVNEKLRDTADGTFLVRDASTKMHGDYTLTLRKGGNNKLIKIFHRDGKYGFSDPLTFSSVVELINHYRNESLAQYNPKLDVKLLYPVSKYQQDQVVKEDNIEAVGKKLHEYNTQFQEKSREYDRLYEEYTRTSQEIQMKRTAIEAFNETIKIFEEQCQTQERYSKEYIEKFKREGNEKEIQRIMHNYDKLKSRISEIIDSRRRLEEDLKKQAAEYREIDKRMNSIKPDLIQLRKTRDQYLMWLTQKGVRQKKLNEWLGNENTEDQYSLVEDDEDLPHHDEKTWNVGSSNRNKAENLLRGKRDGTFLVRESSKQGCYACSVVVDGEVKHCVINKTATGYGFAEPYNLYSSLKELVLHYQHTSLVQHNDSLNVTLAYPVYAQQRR
Sequence of PI3Kβ (p110β/p85α) (P42338 whole entry): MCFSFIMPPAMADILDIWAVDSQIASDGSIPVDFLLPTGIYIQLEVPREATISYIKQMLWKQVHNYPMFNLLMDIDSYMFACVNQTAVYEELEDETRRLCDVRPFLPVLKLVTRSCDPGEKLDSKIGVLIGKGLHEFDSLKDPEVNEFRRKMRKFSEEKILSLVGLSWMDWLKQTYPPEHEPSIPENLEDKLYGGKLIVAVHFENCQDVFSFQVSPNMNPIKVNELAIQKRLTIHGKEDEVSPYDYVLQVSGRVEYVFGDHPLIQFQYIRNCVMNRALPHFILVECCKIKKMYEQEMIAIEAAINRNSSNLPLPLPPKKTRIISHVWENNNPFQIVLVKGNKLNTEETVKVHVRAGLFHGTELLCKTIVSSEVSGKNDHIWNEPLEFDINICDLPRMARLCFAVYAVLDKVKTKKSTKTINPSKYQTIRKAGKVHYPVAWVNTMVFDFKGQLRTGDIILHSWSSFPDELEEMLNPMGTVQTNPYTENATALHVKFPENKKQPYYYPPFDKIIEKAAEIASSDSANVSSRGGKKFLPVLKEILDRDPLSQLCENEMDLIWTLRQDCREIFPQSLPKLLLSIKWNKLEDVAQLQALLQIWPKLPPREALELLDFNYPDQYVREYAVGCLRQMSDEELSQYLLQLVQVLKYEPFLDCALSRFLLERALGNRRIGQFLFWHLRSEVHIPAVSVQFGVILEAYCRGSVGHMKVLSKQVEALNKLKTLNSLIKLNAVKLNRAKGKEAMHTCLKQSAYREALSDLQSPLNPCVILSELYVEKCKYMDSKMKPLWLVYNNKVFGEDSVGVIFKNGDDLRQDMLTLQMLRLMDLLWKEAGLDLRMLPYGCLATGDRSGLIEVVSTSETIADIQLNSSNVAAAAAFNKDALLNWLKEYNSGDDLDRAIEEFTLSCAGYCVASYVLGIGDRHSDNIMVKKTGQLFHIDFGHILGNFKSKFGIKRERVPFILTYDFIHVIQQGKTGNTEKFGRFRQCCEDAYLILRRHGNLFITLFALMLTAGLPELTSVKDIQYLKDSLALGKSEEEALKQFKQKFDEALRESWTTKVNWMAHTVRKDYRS
Sequence of PI3Kβ (p110β/p85α) (P27986 whole entry partner): as the sequence (P27986 whole entry partner) above
Sequence of PI3Kα (p110α/p85α) (P42336 whole entry): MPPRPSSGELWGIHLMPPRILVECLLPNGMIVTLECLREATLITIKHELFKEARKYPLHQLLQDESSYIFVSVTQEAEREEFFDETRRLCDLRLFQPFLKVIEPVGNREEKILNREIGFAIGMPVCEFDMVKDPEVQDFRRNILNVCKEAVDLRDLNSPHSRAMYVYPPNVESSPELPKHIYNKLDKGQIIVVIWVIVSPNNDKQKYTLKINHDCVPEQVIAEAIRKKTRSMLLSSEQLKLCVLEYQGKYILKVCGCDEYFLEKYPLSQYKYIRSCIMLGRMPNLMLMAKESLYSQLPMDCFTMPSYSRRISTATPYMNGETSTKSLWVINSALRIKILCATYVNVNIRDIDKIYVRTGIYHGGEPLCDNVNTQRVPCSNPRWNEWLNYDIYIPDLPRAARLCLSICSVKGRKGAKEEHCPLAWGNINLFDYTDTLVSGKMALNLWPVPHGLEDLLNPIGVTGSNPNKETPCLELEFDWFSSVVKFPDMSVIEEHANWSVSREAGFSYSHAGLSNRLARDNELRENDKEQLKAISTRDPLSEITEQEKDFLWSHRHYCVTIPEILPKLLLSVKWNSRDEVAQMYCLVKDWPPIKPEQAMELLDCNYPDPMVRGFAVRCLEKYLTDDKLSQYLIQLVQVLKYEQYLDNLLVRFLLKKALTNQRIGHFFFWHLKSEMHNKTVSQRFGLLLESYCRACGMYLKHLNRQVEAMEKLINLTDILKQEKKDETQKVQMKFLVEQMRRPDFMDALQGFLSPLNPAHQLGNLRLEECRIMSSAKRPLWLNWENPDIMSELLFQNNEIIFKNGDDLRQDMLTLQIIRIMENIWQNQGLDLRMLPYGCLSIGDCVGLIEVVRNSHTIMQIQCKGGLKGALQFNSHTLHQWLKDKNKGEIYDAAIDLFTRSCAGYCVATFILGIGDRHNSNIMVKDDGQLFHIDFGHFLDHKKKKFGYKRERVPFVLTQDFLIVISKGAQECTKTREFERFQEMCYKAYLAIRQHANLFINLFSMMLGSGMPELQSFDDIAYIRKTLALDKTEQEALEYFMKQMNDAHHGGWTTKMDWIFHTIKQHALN
Sequence of PI3Kα (p110α/p85α) (P27986 whole entry partner): as the sequence (P27986 whole entry partner) above

| IC50 [2] [µM] | IC50 [3] [µM] | IC50 [4] [µM] | IC50 [5] [µM] | Compound | OB (oral bioavailability) [1] [%] | HL (drug half-life) [6] |
| --- | --- | --- | --- | --- | --- | --- |
| > 40 | > 40 | 13.8 ± 1.31 | > 40 | CC(C)=CCC/C(C)=C/COc1ccc2ccc(=O)oc2c1 [AUR, auraptene] | 25.62 | – |
| > 40 | > 40 | > 40 | > 40 | COc1ccc([C@@H]2CC(=O)c3c(O)cc(O)cc3O2)cc1O [HES, hesperetin] | 70.31 | 15.78 |
| – | – | – | – | COc1ccc(-c2cc(=O)c3c(OC)c(OC)c(OC)c(OC)c3o2)cc1OC [NOB, nobiletin] | 61.67 | 16.20 |
| > 40 | > 40 | 17.7 ± 1.16 | > 40 | COc1ccc(-c2cc(=O)c3c(OC)c(OC)c(OC)c(OC)c3o2)cc1 [TAN, tangeretin] | 21.38 | – |

| Compound | IC50 [2] [µM] | IC50 [3] [µM] | IC50 [4] [µM] | IC50 [5] [µM] | OB (oral bioavailability) [1] [%] | HL (drug half-life) [6] |
| --- | --- | --- | --- | --- | --- | --- |
| O=c1cc(-c2ccc(O)c(O)c2)oc2cc(O)cc(O)c12 [LUT, luteolin] | 2.49 ± 0.34 | 2.95 ± 0.19 | 5.79 ± 0.1 | 1.55 ± 0.15 | 36.16 | 15.94 |
| O=C1C[C@@H](c2ccc(O)cc2)Oc2cc(O)cc(O)c21 [NAR, naringenin] | > 40 | > 40 | > 40 | > 40 | 59.29 | – |
